# Values quoted from earlier work as cited in patent publication EP4135668B1, “SOLID ORAL DOSAGE FORM COMPRISING POMALIDOMIDE” (Tecnimede, Sociedade Técnico-Medicinal, SA, priority 2020, dated 2021).
# Conditions: low aqueous solubility and low permeability active compound
smiles,measurement,value
"Nc1cccc2c1C(=O)N(C1CCC(=O)NC1=O)C2=O (stereo not shown) [Pomalidomide, 4-amino-2-(2,6-dioxopiperidine-3-yl)isoindoline-l,3-dione]",Biopharmaceutics Classification System (BCS) class,Class IV
